Results: patent US7301005B2, “Immunomodulatory peptides derived from heat shock proteins and uses thereof” (priority 2000, dated 2007)
Marks after values point to notes of the source that are not given here.

Key:
Format in all cases: cell-based, human
[1] = tested on: SFMC from patients with oJIA; assay: Cytokine production in culture supernatants of SFMC incubated with dnaJ and restimulated with autologous feeder cells plus peptide; details: for production of IL-10 in patients with extended oligoarthritis: three patients with extended oligoarthritis at sampling; for IFNγ / IL-6 / TNFα / IL-4 / IL-10: mean+SD; for IL-10 production detectable or not: culture supernatants of SFMC
Source text: Results are expressed as pg/ml (mean+SD).
Cytokine production to the same peptides was examined in culture supernatants of SFMC from patients with oJIA. […] SFMC from only one of 21 patients with oJIA produced detectable levels of the anti-inflammatory cytokine IL-10, and none produced detectable levels of IL-4.
(§1) In order to evaluate whether human homologous peptides could be the target of cross-recognition leading to self reactivity, human peptides derived from regions of HSJ1, HDJ1, or HDJ2 having sequence homology with E. coli dnaJ were studied. SFMC of 14 patients with oJIA presenting a SI to the recombinant E. coli hsp dnaJ greater than 3 were restimulated for 96 hr with autologous cells in presence or absence of human peptide 2, 3, or 5, which are homologs of bacterial peptide 4; human peptide 20, 21, or 23, which are homologs of bacterial peptide 22; or human peptide 164, 167, or 176, which are homologs of bacterial peptide 174. SFMC proliferative responses, pro-inflammatory cytokine production, and anti-inflammatory IL-4 levels were overall similar between the peptides derived from human dnaJ proteins and the homologous bacterial peptides.
Results are expressed as SI or pg/ml (mean+SD).

[2] = tested on: peripheral blood mononuclear cells (PBMC); assay: Proliferative response (stimulation index) of PBMC stimulated with antigen for 96 hr; details: PBMC
[3] = tested on: synovial fluid mononuclear cells (SFMC) from patients with oJIA; assay: Proliferative response (stimulation index) of SFMC stimulated with antigen for 96 hr; details: SFMC
[4] = tested on: SFMC from patients with oJIA; assay: Proliferative response of SFMC incubated with dnaJ and restimulated with autologous feeder cells plus peptide; details: for SI: Table 3, dnaJ 72 hr then restimulated with peptide, mean+SD
Procedure: Results, expressed as stimulation index (SI), are shown as mean+SD.
In order to identify possible relevant epitopes on the bacterial dnaJ protein, PBMC and SFMC of patients with oJIA were incubated for 72 hr with dnaJ, and restimulated with autologous feeder cells the in presence or absence of selected E. coli derived MHC class II binder peptides for 96 hr.
as §1
Results are expressed as SI or pg/ml (mean+SD). […]
To explore the possible correlation of clinical features with the development of peptide-induced immune modulation, oJIA patients were grouped according to the course of disease, including those with persistent disease (n=16), and those with extended disease (n=15) o-JIA. (FIG. 25).

[5] = Table 3, dnaJ 72 hr then restimulated with peptide
[6] = Table 1, dnaJ 72 hr then restimulated with peptide 72 hr

Substance	SI [4]	IFNγ [1, 5]	IL-6 [1, 5]	TNFα [1, 5]	IFNγ [1, 6] [pg/mL]	IL-4 [1, 6] [pg/mL]	IL-6 [1, 6] [pg/mL]	IL-10 [1, 6] [pg/mL]	TNFα [1, 6] [pg/mL]	further results
DLQLAMAYSLSEMEA (listed as Homo sapiens) [Peptide 254, non-homologous human peptide (HSJ1)]	–	–	–	–	–	–	–	–	–	production of IL-10 in patients with extended oligoarthritis [1]: reduced production of IL-10
tetanus toxoid [TT, reference compound]	–	–	–	–	–	–	–	–	–	median SI [2]: 12.3; median SI [3]: 6.0
RTIVITSHPGQIVKH (listed as Homo sapiens) [Peptide 283, non-homologous human peptide (HDJ2)]	–	–	–	–	–	–	–	–	–	production of IL-10 in patients with extended oligoarthritis [1]: reduced production of IL-10
GRRITTRRIMENGQE (listed as Homo sapiens) [Peptide 176, human HSJ1 peptide, homologue of bacterial dnaJ peptide 174]	4.3 + 2.7	45.6 + 68.3 pg/ml	21.2 + 25.2 pg/ml	8.9 + 10.3 pg/ml	–	–	–	–	–	–
PINFAMAALGGEIEV (listed as Escherichia coli) [Peptide 268, bacterial (E. coli) dnaJ peptide]	–	–	–	–	34.7 ± 51.2	<0.39	45 ± 58.4	<3.9	17.2 ± 30.1	–
PGMVQQIQSVCMECQ (listed as Homo sapiens) [Peptide 167, human HDJ2 peptide, homologue of bacterial dnaJ peptide 174]	3.9 + 3.1	38.3 + 61.2 pg/ml	23.0 + 22.3 pg/ml	7.3 + 7.3 pg/ml	–	–	–	–	–	–
QDYYEILGVSKTAEE (listed as Escherichia coli) [Peptide 4, bacterial (E. coli) dnaJ peptide]	4.1 + 3.33	30.8 + 52.4 pg/ml	60.2 + 60.3 pg/ml	6.0 + 4.5 pg/ml	38.5 ± 47.7	<0.39	49.8 ± 54.0	5.4 ± 6.9	9.8 ± 21.2	–
GDLYVQVQVKQHPIF (listed as Escherichia coli) [Peptide 242, bacterial (E. coli) dnaJ peptide]	–	–	–	–	41.2 ± 48.8	<0.39	34.1 ± 41.7	5.3 ± 6.6	14.2 ± 29.2	–
KDYYQTLGLARGASD (listed as Homo sapiens) [Peptide 3, human HDJ1 peptide, homologue of bacterial dnaJ peptide 4]	8.0 + 7.5	57.5 + 85.7 pg/ml	114.0 + 126 pg/ml	10.3 + 9.9 pg/ml	–	–	–	–	–	–
KKAYRRKALQWHPDK (listed as Homo sapiens) [Peptide 20, human HSJ1 peptide, homologue of bacterial dnaJ peptide 22]	4.7 + 4.7	25.3 + 47.4 pg/ml	33.0 + 34.0 pg/ml	11.8 + 11.2 pg/ml	–	–	–	–	–	IL-10 production detectable or not [1]: did not induce detectable levels of IL-10
QGFFAVQQTCPHCQG (listed as Escherichia coli) [Peptide 174, bacterial (E. coli) dnaJ peptide]	5.9 + 7.5	31.4 + 53.1 pg/ml	56.4 + 70 pg/ml	16.1 + 30.9 pg/ml	29.8 ± 44.6	<0.39	47.3 ± 61.2	4.2 ± 1.9	16.1 ± 31.5	–
QKRAAYDQYGHAAFEQ (listed as Escherichia coli) [Peptide 61, bacterial (E. coli) dnaJ peptide]	–	–	–	–	31 ± 45.7	<0.39	47.6 ± 70.5	<3.9	22.6 ± 35.3	–
YCEVPTNFAMAALGG [Peptide 264]	–	–	–	–	44.9 ± 55.8	<0.39	47.4 ± 61.2	<3.9	14.0 ± 29.3	–
QAYEVLSDAKKRELYD (listed as Homo sapiens) [Peptide 50, non-homologous human peptide (HDJ2)]	–	–	–	–	–	–	–	–	–	production of IL-10 in patients with extended oligoarthritis [1]: reduced production of IL-10
KRAYRRQALRYHPDK (listed as Homo sapiens) [Peptide 21, human HDJ1 peptide, homologue of bacterial dnaJ peptide 22]	4.6 + 4.2	30.8 + 56.4 pg/ml	33.5 + 43.8 pg/ml	26.6 + 39.3 pg/ml	–	–	–	–	–	IL-10 production detectable or not [1]: did not induce detectable levels of IL-10
EDLFMCMDIQLVEAL (listed as Homo sapiens) [Peptide 256, non-homologous human peptide (HDJ2)]	–	–	–	–	–	–	–	–	–	production of IL-10 in patients with extended oligoarthritis [1]: reduced production of IL-10
RKAYKRLAMKYHPDR (listed as Escherichia coli) [Peptide 22, bacterial (E. coli) dnaJ peptide]	4.7 + 4.0	20.1 + 33.5 pg/ml	54.3 + 69.0 pg/ml	10.5 + 23.1 pg/ml	27 ± 38.0	<0.39	45.7 ± 57.7	4.4 ± 2.7	14.1 ± 26.8	IL-10 production detectable or not [1]: did not induce detectable levels of IL-10
TTYYDVLGVKPNATQ (listed as Homo sapiens) [Peptide 5, human HDJ2 peptide, homologue of bacterial dnaJ peptide 4]	8.2 + 7.3*	69.5 + 105.2@ pg/ml	60.0 + 67.2 pg/ml	18.9 + 16.9 pg/ml	–	–	–	–	–	proliferative response compared with bacterial homolog ([4]; p<0.03): significantly greater; IFNγ production compared with bacterial homolog ([1]; p<0.05): significantly greater
KKAYRKLALKYHPDK (listed as Homo sapiens) [Peptide 23, human HDJ2 peptide, homologue of bacterial dnaJ peptide 22]	4.7 + 4.0	38.2 + 75 pg/ml	33.3 + 32.7 pg/ml	7.7 + 7.6 pg/ml	–	–	–	–	–	IL-10 production detectable or not [1]: did not induce detectable levels of IL-10
ASYYEILDVPRSASA (listed as Homo sapiens) [Peptide 2, human HSJ1 peptide, homologue of bacterial dnaJ peptide 4]	5.9 + 5.7	51.3 + 72.4 pg/ml	41.7 + 43.8 pg/ml	23.2 + 26.8 pg/ml	–	–	–	–	–	–
SKTLSVKIPGAVDTG (listed as Escherichia coli) [Peptide 209, bacterial (E. coli) dnaJ peptide]	–	–	–	–	41.3 ± 46.9	<0.39	56.6 ± 65.9	6.2 ± 5.8	15.3 ± 29.2	–
FRSVSTSTTFVQGRR (listed as Homo sapiens) [Peptide 164, human HSJ1 peptide, homologue of bacterial dnaJ peptide 174]	4.2 + 4.0	52.5 + 85.2 pg/ml	27.3 + 31.3 pg/ml	13.5 + 18.9 pg/ml	–	–	–	–	–	–
